The values that follow come from US20260158009A1 (GENZYME CORPORATION, priority 2023, published 2026).

Assay [1] has as its target T1, hRIPK1 (aa 1-375) fusion protein (Homo sapiens, UniProt Q13546).
T1 construct: hRIPK1 (aa 1-375) fusion protein
T1 sequence (Q13546 1-375): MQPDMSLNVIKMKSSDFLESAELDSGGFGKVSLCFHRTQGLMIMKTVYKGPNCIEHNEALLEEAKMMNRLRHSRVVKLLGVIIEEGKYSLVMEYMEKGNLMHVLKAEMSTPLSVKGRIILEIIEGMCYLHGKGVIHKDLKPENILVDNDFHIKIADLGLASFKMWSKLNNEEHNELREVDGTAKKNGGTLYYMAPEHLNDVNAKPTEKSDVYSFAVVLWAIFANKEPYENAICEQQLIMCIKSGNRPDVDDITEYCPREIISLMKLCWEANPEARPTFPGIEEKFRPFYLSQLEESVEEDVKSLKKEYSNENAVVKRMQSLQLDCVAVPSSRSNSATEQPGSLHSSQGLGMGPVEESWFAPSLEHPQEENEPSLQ
As to the kind of experiment: ADP-Glo kinase assay: catalytic activity of RIPK1 (autophosphorylation, conversion of ATP to ADP). It counts as biochemical. An outline of the steps:
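hRIPK1 (aa 1-375) fusion protein (3.6 μg/ml final) was preincubated 30 min at rt with compound (33300-1.69 nM, 1% DMSO), then 50 μM ATP was added for 240 min at rt. ADP from autophosphorylation was measured by ADP-Glo luminescence and curves fitted by nonlinear regression.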

For the next assay, the system named is U937 cells. Put plainly: Cellular assay in U937 cells: activity of RIPK1 inhibitors on TNFα/zVAD.fmk-induced cell death (necroptosis), CellTiter 96 AQueous (MTS) readout. The assay is classed as cell-based. To be noted: Homo sapiens, U-937. In outline:
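Necroptosis was measured by viable-cell MTS reduction (4 h, absorbance 490 nm) after overnight (18–24 h) 37° C culture. Cell suspensions of U937 cells carried TNFα (100 ng/ml) plus zVAD.fmk (50 μM) before compound was added. A 10-point curve (10 μM–0.26 nM or 1 μM–0.07 nM) was run in duplicate, normalised to the control lacking TNFα/zVAD.fmk.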

The IC50 is the midpoint of a concentration-inhibition curve. A higher IC50 goes with weaker potency. As for `Cc1ccc([C@@H]2CCON2C(=O)[C@H]2CC[C@H](Cc3ccc(C4(O)COC4)cc3)CC2)cn1` [compound 348, trans-5 [4-[[4-(3-hydroxyoxetan-3-yl)phenyl]methyl]cyclohexyl]-[(3S)-3-(6-methylpyridin-3-yl)-1,2-oxazolidin-2-yl]methanone], the values for the IC50 (in assay [1]; with U937 cells) were 37 nM and 105 nM, respectively.

Turning to `N#Cc1cc(F)c2cn(C[C@H]3CC[C@H](C(=O)N4OCC[C@H]4c4cc(F)cc(F)c4)CC3)nc2c1` [compound 35, trans-2-((4-((S)-3-(3,5-difluorophenyl)isoxazolidine-2-carbonyl)cyclohexyl)methyl)-4-fluoro-2H-indazole-6-carbonitrile], the IC50 in assay [1] came out at 41 nM; in the assay with U937 cells it was 48 nM.

With `Cc1cn2cc(C[C@H]3CC[C@H](C(=O)N4OCC[C@H]4c4csc(C)n4)CC3)cc(F)c2n1` [compound 370, trans-[4-(8-Fluoro-2-methyl-imidazo[1,2-a]pyridin-6-ylmethyl)-cyclohexyl]-[(S)-3-(2-methyl-thiazol-4-yl)-isoxazolidin-2-yl]-methanone], the figures for the IC50 (in assay [1]; with U937 cells) were 34 nM and 21 nM, respectively.

`Cc1ncn(C[C@H]2CC[C@H](C(=O)N3OCC[C@H]3c3cc(F)cc(C#N)c3)CC2)c1C#N` [compound 88, trans-1-((4-((S)-3-(3-cyano-5-fluorophenyl)isoxazolidine-2-carbonyl)cyclohexyl)methyl)-4-methyl-1H-imidazole-5-carbonitrile]: the IC50 in assay [1] was determined as 52 nM; in the assay with U937 cells it was 157 nM.

Regarding `Cc1cc([C@@H]2CCON2C(=O)[C@H]2CC[C@H](Cn3cnc4cc(C#N)c(F)cc43)CC2)co1` [compound 40, trans-6-fluoro-1-((4-((S)-3-(5-methylfuran-3-yl)isoxazolidine-2-carbonyl)cyclohexyl)methyl)-1H-benzo[d]imidazole-5-carbonitrile], the results for the IC50 (in assay [1]; in the assay on U937 cells) were 41 nM and 59 nM, respectively.

`O=C([C@H]1CC[C@H](Cc2ccc3ncnn3c2)CC1)N1OCC[C@H]1c1cncc(F)c1` [compound 338, trans-[(3S)-3-(5-fluoropyridin-3-yl)-1,2-oxazolidin-2-yl]-[4-([1,2,4]triazolo[1,5-a]pyridin-6-ylmethyl)cyclohexyl]methanone]: the IC50 was 29 nM in assay [1] and 45 nM in the assay with U937 cells.

Consider `Cc1ccc([C@@H]2CCON2C(=O)[C@H]2CC[C@H](Cc3cnc4cnn(C)c4c3)CC2)cn1` [compound 329, trans-[4-[(1-methylpyrazolo[4,3-b]pyridin-6-yl)methyl]cyclohexyl]-[(3S)-3-(6-methylpyridin-3-yl)-1,2-oxazolidin-2-yl]methanone], for which the IC50 was 44 nM in assay [1] and 82 nM in the assay with U937 cells.

Take `Cc1nc2cc(F)ccc2n1C[C@H]1CC[C@H](C(=O)N2OCC[C@H]2c2cc(F)cc(F)c2)CC1` [compound 51, trans-((S)-3-(3,5-difluorophenyl)isoxazolidin-2-yl)(4-((5-fluoro-2-methyl-1H-benzo[d]imidazol-1-yl)methyl)cyclohexyl)methanone]: the IC50 in assay [1] came to 34 nM; in the assay with U937 cells, 17 nM.

Turning to `N#Cc1cc(F)cc([C@@H]2CCON2C(=O)[C@H]2CC[C@H](Cc3ccc(CO)c(F)c3)CC2)c1` [compound 266, trans-3-fluoro-5-[(3S)-2-[4-[[3-fluoro-4-(hydroxymethyl)phenyl]methyl]cyclohexanecarbonyl]isoxazolidin-3-yl]benzonitrile], the IC50 amounted to 13 nM in assay [1] and 1 nM with U937 cells.

As to `N#Cc1cc(F)cc([C@@H]2CCON2C(=O)[C@H]2CC[C@H](Cc3cc(F)cc(CO)c3)CC2)c1` [Compound 256, trans-3-fluoro-5-[(3S)-2-[4-[[3-fluoro-5-(hydroxymethyl)phenyl]methyl]cyclohexanecarbonyl]isoxazolidin-3-yl]benzonitrile], the IC50 in assay [1] came to 15 nM; in the assay on U937 cells, 1 nM.

`O=C([C@H]1C[C@H](Cn2cnc3cc(F)ccc32)C1)N1OCC[C@H]1c1cc(F)cc(F)c1` [compound 115, trans-((S)-3-(3,5-difluorophenyl)isoxazolidin-2-yl)(3-((5-fluoro-1H-benzo[d]imidazol-1-yl)methyl)cyclobutyl)methanone]: the results for the IC50 (in assay [1]; in the assay on U937 cells) were 31 nM and 138 nM, respectively.

As to `O=C([C@H]1CC[C@H](Cc2cncc(F)c2)CC1)N1OCC[C@H]1c1cnccn1` [compound 147, trans-[4-[(5-fluoro-3-pyridyl)methyl]cyclohexyl]-[(3S)-3-pyrazin-2-ylisoxazolidin-2-yl]methanone], the IC50 was determined as 27 nM in assay [1] and 40 nM in the assay on U937 cells.

As to `Cc1ccc([C@@H]2CCON2C(=O)[C@H]2CC[C@H](Cc3ccc(C)nn3)CC2)cn1` [compound 387, trans-[4-[(6-methylpyridazin-3-yl)methyl]cyclohexyl]-[(3S)-3-(6-methylpyridin-3-yl)-1,2-oxazolidin-2-yl]methanone], the IC50 was determined as 995 nM in assay [1] and 1880 nM in the assay on U937 cells.

Turning to `Cc1ncc([C@@H]2CCON2C(=O)[C@H]2CC[C@H](Cc3ccnn3C)CC2)cc1F` [compound 404, trans-[(3S)-3-(5-fluoro-6-methylpyridin-3-yl)-1,2-oxazolidin-2-yl]-[4-[(2-methylpyrazol-3-yl)methyl]cyclohexyl]methanone], the IC50 was 15 nM in assay [1] and 22 nM with U937 cells.

For the compound `N#Cc1ccc2cnn(C[C@H]3CC[C@H](C(=O)N4OCC[C@H]4c4cc(F)cc(F)c4)CC3)c2c1` [compound 29, trans-1-((4-((S)-3-(3,5-difluorophenyl)isoxazolidine-2-carbonyl)cyclohexyl)methyl)-1H-indazole-6-carbonitrile], the IC50 came out at 12 nM in assay [1] and 1 nM in the assay with U937 cells.

Take `NC(=O)c1ccc2c(ccn2C[C@H]2CC[C@H](C(=O)N3OCC[C@H]3c3ccccn3)CC2)c1` [compound 255, trans-1-[[4-[(3S)-3-(2-pyridyl)isoxazolidine-2-carbonyl]cyclohexyl]methyl]indole-5-carboxamide]: the IC50 in assay [1] stood at 25 nM; in the assay on U937 cells it was 521 nM.

For the compound `Cc1nnc2c(F)cc(C[C@H]3CC[C@H](C(=O)N4OCC[C@H]4c4cnccn4)CC3)cn12` [compound 359, trans-[4-[(8-fluoro-3-methyl-[1,2,4]triazolo[4,3-a]pyridin-6-yl)methyl]cyclohexyl]-[(3S)-3-pyrazin-2-yl-1,2-oxazolidin-2-yl]methanone], the IC50 in assay [1] was 104 nM; in the assay with U937 cells, 451 nM.

In the case of `Cc1ccc([C@@H]2CCON2C(=O)[C@H]2CC[C@H](Cc3cc(C)c4ncnn4c3)CC2)cn1` [compound 347, trans-[(3S)-3-(6-methylpyridin-3-yl)-1,2-oxazolidin-2-yl]-[4-[(8-methyl-[1,2,4]triazolo[1,5-a]pyridin-6-yl)methyl]cyclohexyl]methanone], the figures for the IC50 (in assay [1]; in the assay on U937 cells) were 46 nM and 59 nM, respectively.

Consider `Cc1cc([C@@H]2CCON2C(=O)[C@H]2CC[C@H](Cn3cc4ccc(C#N)cc4n3)CC2)co1` [compound 41, trans-2-((4-((S)-3-(5-methylfuran-3-yl)isoxazolidine-2-carbonyl)cyclohexyl)methyl)-2H-indazole-6-carbonitrile], for which the half-inhibitory concentration (IC50) is 30 nM in assay [1] and 91 nM in the assay with U937 cells.

`N#Cc1cc(F)cc([C@@H]2CCON2C(=O)[C@H]2CC[C@H](Cn3ccc4ncc(O)cc43)CC2)c1` [compound 129, trans-3-fluoro-5-[(3S)-2-[4-[(6-hydroxypyrrolo[3,2-b]pyridin-1-yl)methyl]cyclohexanecarbonyl]isoxazolidin-3-yl]benzonitrile]: the IC50 in assay [1] worked out at 29 nM; in the assay with U937 cells it was 7 nM.

As for `Cc1cnc([C@@H]2CCON2C(=O)[C@H]2CC[C@H](Cc3cc(C)ncc3Cl)CC2)cn1` [compound 385, trans-[4-[(5-chloro-2-methylpyridin-4-yl)methyl]cyclohexyl]-[(3S)-3-(5-methylpyrazin-2-yl)-1,2-oxazolidin-2-yl]methanone], the IC50 in assay [1] came to 24 nM; with U937 cells, 3 nM.

On to `COc1cc(C[C@H]2CC[C@H](C(=O)N3OCC[C@H]3c3ccc(C)nc3)CC2)cn2nc(C)nc12` [compound 368, trans-[4-(8-Methoxy-2-methyl-[1,2,4]triazolo[1,5-a]pyridin-6-ylmethyl)-cyclohexyl]-[(S)-3-(6-methyl-pyridin-3-yl)-isoxazolidin-2-yl]-methanone], for which the IC50 in assay [1] was determined as 95 nM; with U937 cells it was 123 nM.

`Cn1cncc1C[C@H]1CC[C@H](C(=O)N2OCC[C@H]2c2cc(F)cc(C#N)c2)CC1` [compound 167, trans-3-fluoro-5-[(3S)-2-[4-[(3-methylimidazol-4-yl)methyl]cyclohexanecarbonyl]isoxazolidin-3-yl]benzonitrile]: the IC50 in assay [1] was 104 nM; with U937 cells, 100 nM.

Turning to `NC(=O)c1ccc2ccn(C[C@H]3CC[C@H](C(=O)N4OCC[C@H]4c4cc(F)cc(F)c4)CC3)c2c1` [compound 105, trans-1-((4-((S)-3-(3,5-difluorophenyl)isoxazolidine-2-carbonyl)cyclohexyl)methyl)-1H-indole-6-carboxamide], the results for the IC50 (in assay [1]; with U937 cells) were 15 nM and 4 nM, respectively.
